Assay results from patent US20240174651A1, “COMPOUNDS AND USE THEREOF FOR TREATMENT OF NEURODEGENERATIVE, DEGENERATIVE AND METABOLIC DISORDERS” (THE SCRIPPS RESEARCH INSTITUTE, priority 2021, published 2024).
Where “and” joins values, the source holds several entries; their conditions need not be identical. Equal values may be shown once.

Tested on: PK1 neuroblastoma cells exposed to TPrP
Assay: cells
Type: cell-based
Details: PK-1, 96 h, read-out: TPrP EC50

| Compound | EC50 [nM] |
| --- | --- |
| c1ccc2[nH]c(CNc3nnc(Cc4ccncc4)c4ccccc34)nc2c1 [SR-27887] | 220 |
| c1ccc2[nH]c(CNc3nnc(Cc4ccncc4)c4ccccc34)cc2c1 [SR-30006] | 50 |
| CO/N=C(\C)c1cccc(Nc2nnc(Cc3ccncc3)c3ccccc23)c1 [SR-30014] | 2 |
| c1ccc2c(c1)CC(Nc1nnc(Cc3ccncc3)c3ccccc13)C2 [SR-27885] | 200 |
| CC(=O)c1cccc(Nc2nnc(Cc3ccncc3)c3ccccc23)c1 [SR005] | 15 |
| CC(=O)c1cccc(Nc2nnc(Cc3cc(C)nc(C)c3)c3ccccc23)c1 [SR-32064] | > 400 |
| c1ccc(OCCNc2nnc(Cc3ccncc3)c3ccccc23)cc1 [SR-27892] | 500 |
| Cc1cc(C(C)c2nnc(Nc3cccc(C4COC4)c3)c3ccccc23)ccn1 (centres unmarked) [SR-35431] | > 900 |
| O=[N+]([O-])c1ccc2oc(Nc3nnc(Cc4ccncc4)c4ccccc34)nc2c1 [SR-32068] | 20 |
| COc1ccc2oc(Nc3nnc(Cc4ccncc4)c4ccccc34)nc2c1 [SR-32076] | 20 |
| Cc1cc(C(C)c2nnc(NC3CCc4ccccc43)c3ccccc23)ccn1 (centres unmarked) [SR-35430] | > 900 |
| CC(c1ccncc1)c1nnc(NCc2cc3ccccc3o2)c2ccccc12 (centres unmarked) [SR-34645] | ~500 |
| O=[N+]([O-])c1cccc2oc(Nc3nnc(Cc4ccncc4)c4ccccc34)nc12 [SR-32069] | 8 |
| c1ccc2c(c1)CC(Nc1nnc(Cc3ccncc3)c3ccccc13)CO2 (centres unmarked) [SR-27889] | 285 |
| c1ccc2oc(CNc3nnc(Cc4ccncc4)c4ccccc34)nc2c1 [SR-27888] | 45 |
| C/C(=N\O)c1cccc(Nc2nnc(Cc3ccncc3)c3ccccc23)c1 [SR-30013] | 2 |
| CC(=O)c1cccc(Nc2nnc(C(C)c3ccncc3)c3ccccc23)c1 (centres unmarked) [SR-34644] | 45 |
| O=S(=O)(c1cccc(Nc2nnc(Cc3ccncc3)c3ccccc23)c1)N1CC2CCC(C1)O2 [SR-35428] | 6 |
| Cc1cc(C(C)c2nnc(NCC3CCOCC3)c3ccccc23)ccn1 (centres unmarked) [SR-35429, 4-(1-(2-methylpyridin-4-yl)ethyl)-N-((tetrahydro-2H-pyran-4-yl)methyl)phthalazin-1-amine] | 26 |
| CC(O)c1cccc(Nc2nnc(Cc3ccncc3)c3ccccc23)c1 (centres unmarked) [SR-29684] | 2 |
| Clc1ccc(Nc2nnc(Cc3ccncc3)c3ccccc23)cc1 [vatalanib, reference compound] | 60 |
| CC1(c2cccc(Nc3nnc(Cc4ccncc4)c4ccccc34)c2)OCCO1 [SR-30012] | 2 |
| c1ccc2oc(CNc3nnc(Cc4ccncc4)c4ccccc34)cc2c1 [SR-30011] | 2 |
| c1ccc2oc(Nc3nnc(Cc4ccncc4)c4ccccc34)nc2c1 [SR-30010] | 2 |
| Cc1cc(Cc2nnc(Nc3nc4ccccc4o3)c3ccccc23)ccn1 [SR-33872] | > 500 |
| c1cc(Nc2nnc(Cc3ccncc3)c3ccccc23)cc(C2COC2)c1 [SR-35426] | 10 |
| COc1cc(Cc2nnc(Nc3cccc(C(C)=O)c3)c3ccccc23)ccn1 [SR-33874] | > 500 |
| c1coc(CNc2nnc(Cc3ccncc3)c3ccccc23)c1 [SR-30005] | 140 |

| Compound | EC50 [nM] |
| --- | --- |
| Cc1cc(C(C)c2nnc(NCC3COc4ccccc4C3)c3ccccc23)ccn1 (centres unmarked) [SR-35432] | > 900 |
| c1ccc2c(NCC3CCOCC3)nnc(Cc3ccncc3)c2c1 [SR-30008] | 15 |
| Cc1ccc2nc(Nc3nnc(Cc4ccncc4)c4ccccc34)oc2c1 [SR-32066] | 50 |
| c1ccc2c(NCC3CCCCO3)nnc(Cc3ccncc3)c2c1 (centres unmarked) [SR-30007] | 60 |
| CC(=O)c1cccc(Nc2nnc(Cc3ccnc(C(F)(F)F)c3)c3ccccc23)c1 [SR-33873] | > 500 |
| Cc1cccc2oc(Nc3nnc(Cc4ccncc4)c4ccccc34)nc12 [SR-32072] | 30 |
| Cc1cc(C(C)c2nnc(NCc3ccco3)c3ccccc23)ccn1 (centres unmarked) [SR-35433] | > 900 |
| Cc1cccc2nc(Nc3nnc(Cc4ccncc4)c4ccccc34)oc12 [SR-32075] | > 400 |
| O=S(=O)(c1cccc(Nc2nnc(Cc3ccncc3)c3ccccc23)c1)N1C2CCC1COC2 [SR-35427] | 7 |
| c1ccc2c(NCC3CCCO3)nnc(Cc3ccncc3)c2c1 (centres unmarked) [SR-30004] | 150 |
| c1ccc2c(c1)ccc1oc(Nc3nnc(Cc4ccncc4)c4ccccc34)nc12 [SR-32077] | 135 |
| c1ccc2c(c1)CCC2Nc1nnc(Cc2ccncc2)c2ccccc12 (centres unmarked) [SR-27884] | 500 |
| c1ccc2c(c1)CC(CNc1nnc(Cc3ccncc3)c3ccccc13)CO2 (centres unmarked) [SR-27890] | 165 |
| Cc1cc(Cc2nnc(Nc3nc4ccccc4o3)c3ccccc23)cc(C)n1 [SR-32065] | > 400 |
| O=S(=O)(c1cccc(Nc2nnc(Cc3ccncc3)c3ccccc23)c1)N1CCOCC1 [SR-35424] | 9 |
| Fc1cccc2oc(Nc3nnc(Cc4ccncc4)c4ccccc34)nc12 [SR-32070] | 20 |
| COc1ccc(CNc2nnc(Cc3ccncc3)c3ccccc23)cc1OC [SR-27886] | 150 |
| Fc1cccc2nc(Nc3nnc(Cc4ccncc4)c4ccccc34)oc12 [SR-32074] | 30 |
| c1ccc2cc3oc(Nc4nnc(Cc5ccncc5)c5ccccc45)nc3cc2c1 [SR-32073] | 250 |
| Fc1ccc2nc(Nc3nnc(Cc4ccncc4)c4ccccc34)oc2c1 [SR-32071] | 90 |
| CC(=O)c1cccc(Nc2nnc(C(c3ccncc3)C(F)(F)F)c3ccccc23)c1 (centres unmarked) [SR-34646] | > 500 |
| CC(=O)c1cccc(Nc2nnc(Cc3ccncc3C(F)(F)F)c3ccccc23)c1 [SR-33876] | > 500 |
| Fc1ccc2oc(Nc3nnc(Cc4ccncc4)c4ccccc34)nc2c1 [SR-32067] | 20 |
| CC(=O)c1cccc(Nc2nnc(Cc3ccnc(C)c3)c3ccccc23)c1 [SR-33871] | 70 |
| CC(=C(F)F)c1cccc(Nc2nnc(Cc3ccncc3)c3ccccc23)c1 [SR-31144] | > 400 |
| O=S(=O)(c1ccc(Nc2nnc(Cc3ccncc3)c3ccccc23)cc1)N1CCOCC1 [SR-35425] | 5 |
| COc1cc(Cc2nnc(NCc3cc4ccccc4o3)c3ccccc23)ccn1 [SR-33875] | > 500 |

Same assay, conditions: read-out: TPrP EC50

| Compound | EC50 |
| --- | --- |
| CC(=O)c1cccc(Nc2nnc(Cc3ccncc3)c3ccccc23)c1 [SR005] | 20 nM and 25 nM |
